Patent US20020035125A1, “Therapeutic combination” (priority 2000, published 2002)

Settings: 100% relative humidity over 48 hours

With `CCOC(=O)N1c2ccc(C(F)(F)F)cc2[C@@H](N(Cc2cc(C(F)(F)F)cc(C(F)(F)F)c2)C(=O)OC)C[C@H]1CC` [Example 9, Anhydrous (−)-(2R,4S)-4-[(3,5-Bis-trifluoromethyl-benzyl)-methoxycarbonyl-amino]-2-ethyl-6-trifluoromethyl-3,4-dihydro-2H-quinoline-1-carboxylic Acid Ethyl Ester] the Hygroscopicity was “Non-hygroscopic”.
